Assays:
HT29 cells = assay: Cell growth by WST-1 assay, HT29; type: cell-based, human; settings: 50 nM EpEX and SU 10 μM, FIG. 2D
Method: (§1) FIGS. 2A to 2K. EpEX promotes tumor progression via HGFR signaling. (FIG. 2A) WT or EpCAM knockout (KO) HCT116 and HT29 cells treated with HGF (0.5 nM) for 15 min. The phosphorylation of HGFR, AKT, and ERK was examined by Western blotting. (FIG. 2B) WT or KO HCT116 and HT29 cells were treated with HGF (0.5 nM) with 2% FBS for the indicated times. Cell growth was examined by the WST-1 assay. (FIG. 2C) Starved HCT116 cells were treated with HGFR inhibitor SU11274 (SU, 10 μM) for 1 h then treated with 50 nM of EpEX-His for 15 min. The levels of phosphorylated HGFR, EGFR, AKT, and ERK were examined by Western blotting. HCT116 and HT29 cells were treated with 50 nM EpEX and SU (10 μM). (FIG. 2D) Cell growth was examined by WST-1 assay after treatment for indicated time. (FIG. 2E) HCT116 cells were treated with shLuc or HGFR shRNA then treated with 50 nM of EpEX-His for 15 min. The levels of phosphorylated HGFR, EGFR, ERK, and AKT were examined in HGFR knockdown HCT116 cells by Western blotting. (FIG. 2F) The levels of phosphorylated ADAM17 and presenilin 2 were examined by Western blotting. […]
(§2) Cell viability was assayed by measuring mitochondrial dehydrogenase activity with the WST-1 (4-[3-(4-lodophenyl)-2-(4-nitrophenyl)-2H-5-tetrazolio]-1, 3-benzene disulfonate) assay. […] Following the incubation, absorbance of each well was detected at 450 nm using a spectrophotometric microplate reader.

HCT116 cells = assay: Cell growth by WST-1 assay, HCT116; type: cell-based, human; settings: 50 nM EpEX and SU 10 μM, FIG. 2D
Method: as §1, §2

**Q.** Which results are given for Cc1[nH]c(C=C2C(=O)Nc3ccc(S(=O)(=O)N(C)c4cccc(Cl)c4)cc32)c(C)c1C(=O)N1CCN(C)CC1 (stereo in doubt) [SU11274, (3Z)-N-(3-Chlorophenyl)-3-({3,5-dimethyl-4-[(4-methylpiperazin-1-yl)carbonyl]-1H-pyrrol-2-yl}methylene)-N-methyl-2-oxo-2,3-dihydro-1H-indole-5-sulfonamide]?
**A.** EpEX-induced increases in cell viability and proliferation (HT29 cells): abolished the EpEX-induced increases in cell viability and proliferation; EpEX-induced increases in cell viability and proliferation (HCT116 cells): abolished the EpEX-induced increases in cell viability and proliferation
